Values quoted from earlier work in patent US7763563B2, “Niobium compounds and hydrates thereof, formulations containing the same, and methods of providing specifications therefor” (H. C. Starck GmbH, priority 2006, dated 2010).

Conditions: prior art compounds, Limar et al.

(NH4)3[Nb(O)(C2O4)3]*x H2O
water solubility: 40 g Nb/1
